Results published in the supplement of paper PMC8837787.

What follows are molecules tested on Saccharomyces cerevisiae ABC16-Green Monster (assay: growth inhibition at single dose (up to 150 µM), below the 70% cut-off for dose-response; higher = more potent). Details: 18 h; 30 °C; YPD.
Summary of the method: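 Data are given as percent growth inhibition. Log-phase drug-sensitive S. cerevisiae ABC16-Green Monster cells (OD600 0.1–0.2, 200 µl per well in 96-well plates) were treated in biological duplicates with each library compound at a single 150 µM dose, with untreated cultures alongside, and OD600 was measured at 0 h and after 18 h at 30 °C. Compounds falling below 70% in both replicates were not taken to dose-response.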

SMILES | growth inhibition at single dose
O=C(c1ccccc1F)N(Cc1ccc(Cl)cc1)c1ccccn1 | < 70%
Cc1nn(C)c(C)c1CC(=O)Nc1ccc(-n2cnc3ccccc32)cc1 | < 70%
Oc1ccc(C2=CCN(c3ncnc4ccccc34)CC2)cc1 | < 70%
O=C(c1cnn(C(=O)c2nn(-c3ccc(Cl)cc3)cc2O)c1)c1ccccc1O | < 70%
Cc1nn2c(=O)c3c([nH]c2c1-c1ccc(Cl)cc1)CCCC3 | < 70%
COc1ccc(OC)c(C2C3=C(CC(C)(C)CC3=O)N(c3ccc(Cl)c(Cl)c3)C3=C2C(=O)CC(C)(C)C3)c1 | < 70%
O=c1nc(/C=C/c2ccc(Cl)cc2)oc2ccccc12 | < 70%
CN(C)Cc1ccc(CNc2ncnc3scc(-c4ccccc4)c23)cc1 | < 70%
Cc1ccc(S(=O)(=O)c2c(COC(=O)c3cccc(C)c3)c(-c3ccccc3)nn2C)cc1 | < 70%
CCCCNCC(O)(c1ccc(Cl)cc1)c1ccc(Cl)cc1 | < 70%
Nc1nc(Nc2cc(Cl)cc(Cl)c2)c2[nH]cnc2n1 | < 70%
OC(CNC1CCCC1)Cn1c2ccccc2c2ccccc21 (centres undefined) | < 70%
CCOC(=O)c1c[nH]c2cc(Cl)cc(Cl)c2c1=O | < 70%
Cn1c(C(=O)c2cccc3ccccc23)nc2ccccc21 | < 70%
Cc1ccc(N2C(=O)C3C(C2=O)C2(c4ccccc4)C(=O)C3(c3ccccc3)C(c3ccccc3)=C2c2ccccc2)cc1 (centres undefined) | < 70%
OC1CCC(Nc2nn3cc(-c4ccccc4)nc3s2)CC1 (centres undefined) | < 70%
COc1ccccc1CN1CCN2C(=O)[C@@H](Cc3ccc(O)cc3)NC(=O)[C@H]2C1 | < 70%
COc1ccc(CN2CCOc3ccc(C(C)(O)CN(C)C)cc3C2)cc1C (centres undefined) | < 70%
CNc1nnc(Sc2cnn(-c3ccccc3)c(=O)c2Cl)s1 | < 70%
COc1cc(NC(C)CCCN)c2ncccc2c1 (centres undefined) | < 70%
O=C(Nc1ccnc(-c2cccnc2)n1)c1cc(C(F)(F)F)cc(C(F)(F)F)c1 | < 70%
CN(C)c1ccc(-c2nc3cc(N)ccc3[nH]2)cc1 | < 70%
COc1ccc(C2=NOC(C(N)=O)C2)cc1OC (centres undefined) | < 70%
O=C(OCc1ccccc1)N1CCC(c2cc(-c3ccncc3)c(-c3ccc(F)cc3)[nH]2)CC1 | < 70%

SMILES | growth inhibition at single dose
N=c1n(CCN2CCCCC2)c2ccccc2n1CC(O)c1cccc(Br)c1 (centres undefined) | < 70%
CN1CCN(c2ncnc3c2[nH]c2ccc(Cl)cc23)CC1 | < 70%
CCOc1ccc2c(c1)CN(Cc1ccc(Cl)cc1)CO2 | < 70%
COC(=O)c1ccc(F)cc1NS(=O)(=O)c1cccc(-c2cnn(Cc3ccccc3)c2)c1 | < 70%
C/N=c1\scc(-c2ccc(OC(F)F)cc2)n1/N=C/c1cccs1 | < 70%
Cc1ccc(Cl)cc1N1CCN(CCCNC(=O)C2CCN(c3nc4ccccc4[nH]3)CC2)CC1 | < 70%
Cn1cc(/C=C/C(=O)Nc2ncc(Cc3ccccc3)s2)cn1 | < 70%
COc1ccc(C2Sc3ccccc3N=C3C2=C(O)c2ccccc23)cc1 (centres undefined) | < 70%
O=C(CN1C(=O)CCOc2ccccc21)N1CCN(C(=O)C2COc3ccccc3O2)CC1 (centres undefined) | < 70%
O=C(CCl)NCCOc1ccc(Cl)cc1Cl | < 70%
O=C(Nc1ccc2nc(-c3ccccc3Cl)[nH]c2c1)c1ccc(=O)[nH]n1 | < 70%
N=C(N)Nc1ccc(-c2ccc(-c3ccc(N=C(N)N)c(Cl)c3)o2)cc1Cl | < 70%
O=S(=O)(c1ccc(Cl)c(N=C2NN=C(c3c[nH]c4ccccc34)CS2)c1)N1CCOCC1 | < 70%
CCCc1c(C)nc2ccc(Br)cc2c1O | < 70%
O=C(C1CCCCC1)N1CC(=O)N2CCc3ccccc3C2C1 (centres undefined) | < 70%
CC(Nc1ncnc2sccc12)c1ccc(F)cc1 (centres undefined) | < 70%
CCNC(=O)C(C)Nc1nc(-c2cccnc2)nc2sc(C)c(C)c12 (centres undefined) | < 70%
O=C(NCCN1CCCC1)c1cc(NCCCCN2CCC(F)(F)CC2)nc2ccc(Cl)cc12 | < 70%
Cc1cc(Cl)ccc1NC(=O)CCc1ccc(S(=O)(=O)NCC(C)C)cc1 | < 70%
CCOC(=O)c1[nH]c(C)c(C(=O)OCC(=O)Nc2ccc(Cl)cn2)c1C | < 70%
N#Cc1ccc(NC(=O)Nc2ccc(C#N)cc2)cc1 | < 70%
Cc1ccc(C)c(-c2csc(Nc3ccc(C)c(C)c3)n2)c1 | < 70%
CCCCc1c(CCC)c(=N)c2ccccc2n1C | < 70%
O=C(Nc1ccc(-c2nc3ccccc3[nH]2)cc1)C1CCC1 | < 70%

SMILES | growth inhibition at single dose
CN1CCN(c2ccc(NC(=O)c3csc4c3CCCC4)cc2)CC1 | < 70%
C=CC12CCN(CC1)C(C(O)c1ccnc3ccc(OC)cc13)C2 (centres undefined) | < 70%
CCn1c2ccccc2c2cc(NC(C)C(=O)N3CCNC3=O)ccc21 (centres undefined) | < 70%
O=S(=O)(c1ccc2ccccc2c1)N1CCCC1c1nnc2ccccn12 (centres undefined) | < 70%
COc1ccc(-c2nc(NC(=O)CS(=O)(=O)c3ccc(F)cc3)sc2C)cc1 | < 70%
COc1cccc(Nc2nc(-c3ccc(CCC(C)NC(C)=O)cc3)cs2)c1 (centres undefined) | < 70%
Cc1cc(NCC(C)C)c2n[nH]c(-c3ccccc3)c2n1 | < 70%
Cc1ccccc1C(=O)N1N=C(Nc2ccccc2)SC1(C)C | < 70%
Cc1noc(C)c1C(=O)OCC(=O)c1cc(C)n(-c2ccccc2F)c1C | < 70%
COc1ccc(-c2c(C)nn3c(N)c(C#N)cnc23)cc1OC | < 70%
Cc1cc2nc(NC(=O)C(C)(C)C)nc(Cl)c2n1Cc1ccc(Cl)cc1 | < 70%
CCN(CC)CCN1COc2c(cc(Cl)c3cccnc23)C1 | < 70%
CC(=O)c1c(C)[nH]c(C(=O)OCCOc2ccccc2)c1C | < 70%
O=C(NCCCN1CCC(N2CCCCC2)CC1)C1=Cc2cc(Br)ccc2OC1 | < 70%
CN(CC(=O)Nc1ccc(Cl)c(C(F)(F)F)c1)Cc1ccc(O)c2ncccc12 | < 70%
CCc1ccc(C(NCc2nc(N)nc(N(C)C)n2)C(C)C)cc1 (centres undefined) | < 70%
c1ccc2c(NCc3ccc(N4CCCC4)nc3)ncnc2c1 | < 70%
CC1CCCN(C(=O)C(C)Nc2cc(Cl)ccc2N2CCOCC2)C1 (centres undefined) | < 70%
CCOC(=O)c1c(C)[nH]c(C(=O)Nc2ncccc2C)c1C | < 70%
COc1ccc(OC(C)C(=O)Nc2ccc(Cl)cc2C)cc1 (centres undefined) | < 70%
COc1ccc(C2N(C)c3ccccc3N2C)cc1 | < 70%
CCCCCC(=O)N1c2ccccc2N=C2CC(c3ccc(OC)c(OC)c3)CC(O)=C2C1c1ccc(C(F)(F)F)cc1 (centres undefined) | < 70%
CCOC(=O)c1[nH]c(C)c(C(=O)CN(C)S(=O)(=O)c2c(C)noc2C)c1C | < 70%
Nc1ncnc2c1c(-c1cnc3ccccc3c1)nn2CC1CCNCC1 | < 70%

SMILES | growth inhibition at single dose
Cc1cc(C(=O)CSc2nc3ccccc3[nH]2)c(C)n1-c1ccc(F)cc1 | < 70%
Nc1c(C(=O)c2ccc3c(c2)NC(=O)CO3)sc2c1c(=O)[nH]c(=O)n2Cc1ccccc1 | < 70%
N=C(N)N/N=C/c1ccc(Cl)cc1Cl | < 70%
CC1CC(C)CN(C(=O)c2ccc(Cl)cc2Cl)C1 (centres undefined) | < 70%
Nc1ncnc2[nH]nc(Cc3cccc4ccccc34)c12 | < 70%
O=C1O[C@@H](COc2ccon2)CN1c1cc(F)c(C2=CCN(Cc3ccccc3)CC2)c(F)c1 | < 70%
Cc1ncc(-c2ccnc(Nc3ccc(S(C)(=O)=O)cc3)n2)n1C(C)C | < 70%
CC(NCC(=O)N1c2ccc(S(N)(=O)=O)cc2CC1C)C1CC2CCC1C2 (centres undefined) | < 70%
Clc1ccc(CCNc2cc(-c3ccccc3)nc3ncnn23)cc1 | < 70%
CCCCCCc1cc2cc(-c3nc4ccccc4[nH]3)c(=Nc3ccccc3C)oc2cc1O | < 70%
Clc1cc2c(c3ncccc13)OCN(Cc1ccco1)C2 | < 70%
COc1ccc(CCNC(=O)c2cc(S(=O)(=O)N3CC(C)CC(C)C3)ccc2Sc2ccc(F)cc2)cc1OC (centres undefined) | < 70%
Cc1cccc(Cn2ccc(NC(=O)c3ccc4c(c3)OCO4)n2)c1 | < 70%
COC(=O)c1cc(OC)c(OC)cc1NS(=O)(=O)c1ccc(Cl)cc1 | < 70%
COc1cccc(C(=O)NC(c2ccc(C)cc2)c2cc(Cl)c3cccnc3c2O)c1 (centres undefined) | < 70%
Cc1cccc(-c2nnc(Sc3nc(C)nc4sc5c(c34)CCCC5)n2CC(N)=O)c1 | < 70%
O=C(c1cc(-c2ccccc2)n[nH]1)N1CCN(S(=O)(=O)c2ccccc2)CC1 | < 70%
CCC(C)c1ccc(S(=O)(=O)N(Cc2ccc(C(=O)NC3CC3)cc2)C2CC2)cc1 (centres undefined) | < 70%
O=C(Nc1ccc(N2CCCC2)cn1)c1cccc(F)c1 | < 70%
CCOC(=O)Cc1ccc(NC(=O)c2ccc(C(C)(C)C)cc2)cc1 | < 70%
CCOC(=O)C1=C(C)N=c2sc(=Cc3cc(Cl)ccc3O)c(=O)n2C1c1ccc(OC)cc1 (centres undefined) | < 70%
O=C(Nc1cccc2c[nH]nc12)c1cnc(OCC(F)(F)F)c(Cl)c1 | < 70%
